# Reference: publication PMC8154581, “Discovery of Novel Thiophene-arylamide Derivatives as DprE1 Inhibitors with Potent Antimycobacterial Activities” (Journal of Medicinal Chemistry, 2021)
# Several values for one entry are separate records, joined by “and”; a condition that tells them apart may be missing. Identical values can stand only once. Like-named read-outs stand apart in the source and are kept apart here.
# What was measured:
# [1] = system: Vero cells; assay: Cytotoxicity assay in Vero cells (MTT); assay type: cell-based; conditions: for IC50: Chlorocebus sabaeus, Vero cells, 48 h, read-out: IC50 (Vero)
# [2] = system: M. tuberculosis H37Rv; assay: MIC against replicating M. tuberculosis H37Rv, microplate Alamar blue assay (MABA); assay type: cell-based
# [3] = target: Mt-DprE1 (Mycobacterium tuberculosis, UniProt P9WJF1); assay type: biochemical, M. tuberculosis
# [4] = Hepatocyte stability assay, human; conditions: human hepatocytes
# [5] = system: M. tuberculosis (H37Rv) in infected mouse J774A.1 macrophages; assay type: cell-based
# [6] = target: hERG K+ channel (Homo sapiens, UniProt Q12809); assay: Inhibition of the hERG K+ channel, electrophysiology
# [7] = Cytotoxicity assay in HepG2 cells (MTT); conditions: human
# [8] = Hepatocyte stability assay, mouse; conditions: male, mouse hepatocytes
# [9] = Pharmacokinetic studies in Balb/c mice; conditions: male, Balb/c, mouse, in vivo
# [10] = system: M. tuberculosis H37Rv; assay: In vivo efficacy in acute TB infection model in Balb/c mice; conditions: for log10 CFU/lung: oral, three weeks, INH 25 mg/kg
# [11] = Mycobacterium tuberculosis, H37RV, against M. tuberculosis H37Rv, Tables 1-3, read-out: MIC
# [12] = Mycobacterium tuberculosis, H37RV, supplementary CSV, same values as Tables 1-3, read-out: Minimal inhibit concentration
# [13] = Mycobacterium tuberculosis, H37RV, against M. tuberculosis H37Rv, Tables 1-3
# [14] = Mycobacterium tuberculosis, H37RV, Table 4, read-out: MIC H37Rv
# hERG K+ channel, sequence (Q12809 whole entry): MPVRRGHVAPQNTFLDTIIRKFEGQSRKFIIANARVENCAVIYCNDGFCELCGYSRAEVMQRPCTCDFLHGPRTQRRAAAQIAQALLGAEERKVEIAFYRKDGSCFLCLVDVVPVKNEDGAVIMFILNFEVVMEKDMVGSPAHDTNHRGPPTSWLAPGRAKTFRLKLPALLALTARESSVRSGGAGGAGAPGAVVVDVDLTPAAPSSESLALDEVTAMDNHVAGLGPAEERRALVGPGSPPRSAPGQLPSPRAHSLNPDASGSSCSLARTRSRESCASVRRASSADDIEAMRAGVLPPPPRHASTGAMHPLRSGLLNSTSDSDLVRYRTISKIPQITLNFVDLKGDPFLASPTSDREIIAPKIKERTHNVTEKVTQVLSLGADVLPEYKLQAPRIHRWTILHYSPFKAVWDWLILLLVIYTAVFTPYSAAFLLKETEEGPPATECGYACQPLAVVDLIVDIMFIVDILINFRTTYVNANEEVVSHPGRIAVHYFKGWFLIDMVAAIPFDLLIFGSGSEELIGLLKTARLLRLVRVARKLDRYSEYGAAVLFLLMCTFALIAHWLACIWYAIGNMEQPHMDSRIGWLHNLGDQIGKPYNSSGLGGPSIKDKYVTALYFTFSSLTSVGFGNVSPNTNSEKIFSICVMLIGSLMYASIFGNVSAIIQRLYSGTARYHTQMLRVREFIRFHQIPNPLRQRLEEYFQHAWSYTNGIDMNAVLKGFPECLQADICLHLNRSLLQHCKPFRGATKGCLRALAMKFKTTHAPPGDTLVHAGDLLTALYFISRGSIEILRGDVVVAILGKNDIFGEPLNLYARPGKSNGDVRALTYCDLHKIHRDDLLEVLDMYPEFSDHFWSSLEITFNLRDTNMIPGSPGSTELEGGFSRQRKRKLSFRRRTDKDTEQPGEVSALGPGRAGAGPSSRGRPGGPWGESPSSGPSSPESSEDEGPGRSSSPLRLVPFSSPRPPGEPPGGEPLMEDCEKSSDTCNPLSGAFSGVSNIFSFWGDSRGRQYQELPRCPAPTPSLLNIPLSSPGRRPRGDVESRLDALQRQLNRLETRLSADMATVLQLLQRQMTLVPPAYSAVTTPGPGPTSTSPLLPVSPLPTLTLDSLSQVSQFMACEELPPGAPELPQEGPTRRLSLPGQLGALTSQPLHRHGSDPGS
# Mt-DprE1, sequence (P9WJF1 whole entry, looked up): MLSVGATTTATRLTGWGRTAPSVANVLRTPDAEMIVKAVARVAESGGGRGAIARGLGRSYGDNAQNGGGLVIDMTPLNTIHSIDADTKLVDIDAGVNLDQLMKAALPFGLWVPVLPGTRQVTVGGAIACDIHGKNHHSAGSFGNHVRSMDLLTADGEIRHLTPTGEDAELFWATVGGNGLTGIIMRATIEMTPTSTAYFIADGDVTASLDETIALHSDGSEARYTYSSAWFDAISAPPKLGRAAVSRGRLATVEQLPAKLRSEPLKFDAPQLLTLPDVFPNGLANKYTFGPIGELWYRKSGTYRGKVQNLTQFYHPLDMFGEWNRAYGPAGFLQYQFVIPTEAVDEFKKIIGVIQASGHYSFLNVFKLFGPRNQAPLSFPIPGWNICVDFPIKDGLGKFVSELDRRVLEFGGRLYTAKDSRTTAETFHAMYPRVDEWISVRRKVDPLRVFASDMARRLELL
structure (smiles),measurement,setting,value
"CCOC(=O)NC(=O)c1ccsc1NC(=O)c1ccc(C(=O)N2CCC2)cc1 [Compound 23h, Ethyl (2-(4-(Azetidine-1-carbonyl)benzamido)thiophene-3-carbonyl)carbamate]",SI,[1],>76
same,IC50,[1],> 64 µg/mL
same,MIC,[2]; [11],0.84 µg/mL
same,MIC,[2]; [12],0.84 µg/mL
same,melting point,,182 to 183 °C
"CCOC(=O)NC(=O)c1ccsc1NC(=O)c1ccc(C(=O)N2CCCCC2)cc1 [Compound 23j, Ethyl (2-(4-(Piperidine-1-carbonyl)benzamido)thiophene-3-carbonyl)carbamate]",IC50 DprE1,[3],0.3 ± 0.1 µg/mL
same,IC50,[1],> 64 µg/mL
same,half-life at 1 µM,[4],50.8 min
same,"remaining at 0.5 h, 1 µM",[4],66.4%
same,log10 CFU/macrophages,[5],4.45 ± 0.03 log10 CFU and 4.54 ± 0.01 log10 CFU
same,Δlog10 CFU,[5],1.07 log10 CFU and 0.98 log10 CFU
same,MIC,[2]; [11],0.02 µg/mL
same,MIC,[2]; [12],0.02 µg/mL
same,IC50,[6],23.7 µM
same,IC50 at 48 h,[7],> 64 µg/mL
same,half-life at 1 µM,[8],56.4 min
same,"remaining at 0.5 h, 1 µM",[8],69.1%
"CCOC(=O)NC(=O)c1ccsc1NC(=O)c1ccc(C(=O)N2CCC(OC)CC2)cc1 [Compound 23m, Ethyl (2-(4-(4-Methoxypiperidine-1-carbonyl)benzamido)thiophene-3-carbonyl)carbamate]",SI,[1],>533
same,IC50,[1],> 64 µg/mL
same,MIC,[2]; [11],0.12 µg/mL
same,MIC,[2]; [12],0.12 µg/mL
same,melting point,,160 to 161 °C
"CCOC(=O)NC(=O)c1ccsc1NC(=O)c1ccc(C(=O)N2CCSCC2)cc1 [Compound 23p, Ethyl (2-(4-(Thiomorpholine-4-carbonyl)benzamido)thiophene-3-carbonyl)carbamate]",SI,[1],159
same,IC50,[1],52.3 µg/mL
same,MIC,[2]; [11],0.33 µg/mL
same,MIC,[2]; [12],0.33 µg/mL
same,melting point,,178 to 179 °C
"CCOC(=O)NC(=O)c1ccsc1NC(=O)c1ccc(C(=O)N2CCCCC2)cc1Cl [Compound 24c, Ethyl (2-(2-Chloro-4-(piperidine-1-carbonyl)benzamido)thiophene-3-carbonyl)carbamate]",SI,[1],>142
same,IC50,[1],> 64 µg/mL
same,MIC,[2]; [11],0.45 µg/mL
same,MIC,[2]; [12],0.45 µg/mL
same,melting point,,59 to 60 °C
"CCOC(=O)NC(=O)c1ccsc1NC(=O)c1ccc(C(=O)N2CCCCC2)cc1Br [Compound 24d, Ethyl (2-(2-Bromo-4-(piperidine-1-carbonyl)benzamido)thiophene-3-carbonyl)carbamate]",SI,[1],>131
same,IC50,[1],> 64 µg/mL
same,MIC,[2]; [11],0.49 µg/mL
same,MIC,[2]; [12],0.49 µg/mL
same,melting point,,144 to 145 °C
"CCOC(=O)NC(=O)c1ccsc1NC(=O)c1ccc(C(=O)N2CCCCC2)cc1[N+](=O)[O-] [Compound 24e, Ethyl (2-(2-Nitro-4-(piperidine-1-carbonyl)benzamido)thiophene-3-carbonyl)carbamate]",SI,[1],>34
same,IC50,[1],> 64 µg/mL
same,MIC,[2]; [11],1.86 µg/mL
same,MIC,[2]; [12],1.86 µg/mL
same,melting point,,113 to 114 °C
"CCOC(=O)NC(=O)c1ccsc1NC(=O)c1ccc(C(=O)N2CCCCC2)c(F)c1 [Compound 24f, Ethyl (2-(3-Fluoro-4-(piperidine-1-carbonyl)benzamido)thiophene-3-carbonyl)carbamate]",IC50 DprE1,[3],0.2 ± 0.04 µg/mL
same,IC50,[1],> 64 µg/mL
same,half-life at 1 µM,[4],38.1 min
same,"remaining at 0.5 h, 1 µM",[4],58%
same,log10 CFU/macrophages,[5],4.18 ± 0.04 log10 CFU and 4.41 ± 0.10 log10 CFU
same,MIC H37Rv,[2]; Table 4,0.020 µg/mL
same,MIC,[2]; [13],< 0.016 µg/mL
same,MIC,[2]; [12],< 0.016 µg/mL
same,MIC,[2]; [14],0.02 to 0.12 µg/mL
same,melting point,,186 to 187 °C
same,IC50,[6],> 30 µM
same,IC50 at 48 h,[7],> 64 µg/mL
same,half-life at 1 µM,[8],43.7 min
same,"remaining at 0.5 h, 1 µM",[8],62.1%
same,AUC(0-inf) at 24 h,"[9]; iv, 5 mg/kg",184 ng·h/mL
same,AUC(0-t) at 24 h,"[9]; iv, 5 mg/kg",183 ng·h/mL
same,Cmax at 24 h,"[9]; iv, 5 mg/kg",1300 ng/mL
same,MRT inf at 24 h,"[9]; iv, 5 mg/kg",7.8 min
same,clearance at 24 h,"[9]; iv, 5 mg/kg",479 mL/min/kg
same,half-life at 24 h,"[9]; iv, 5 mg/kg",7.8 min
same,AUC(0-inf) at 24 h,"[9]; po, 50 mg/kg",57.9 ng·h/mL
same,AUC(0-t) at 24 h,"[9]; po, 50 mg/kg",41.9 ng·h/mL
same,Cmax at 24 h,"[9]; po, 50 mg/kg",25.4 ng/mL
same,MRT inf at 24 h,"[9]; po, 50 mg/kg",126 min
same,Tmax at 24 h,"[9]; po, 50 mg/kg",60 min
same,bioavailability at 24 h,"[9]; po, 50 mg/kg",2.3%
same,half-life at 24 h,"[9]; po, 50 mg/kg",102 min
"CCOC(=O)NC(=O)c1ccsc1NC(=O)c1coc(C(=O)N2CCCCC2)c1 [Compound 24k, Ethyl (2-(5-(Piperidine-1-carbonyl)furan-3-carboxamido)thiophene-3-carbonyl)carbamate]",SI,[1],>173
same,IC50,[1],> 64 µg/mL
same,MIC,[2]; [11],0.37 µg/mL
same,MIC,[2]; [12],0.37 µg/mL
same,MIC,[2]; [14],0.15 µg/mL
same,melting point,,157 to 158 °C
"COC(=O)NC(=O)c1ccsc1NC(=O)c1ccc(C(=O)N2CCCCC2)c(F)c1 [Compound 25b, Methyl (2-(3-Fluoro-4-(piperidine-1-carbonyl)benzamido)thiophene-3-carbonyl)carbamate]",IC50 DprE1,[3],0.4 ± 0.1 µg/mL
same,IC50,[1],> 64 µg/mL
same,half-life at 1 µM,[4],32.6 min
same,"remaining at 0.5 h, 1 µM",[4],52.8%
same,log10 CFU/macrophages,[5],4.59 ± 0.05 log10 CFU and 4.75 ± 0.21 log10 CFU
same,Δlog10 CFU,[5],0.93 log10 CFU and 0.77 log10 CFU
same,MIC H37Rv,[2]; Table 4,0.030 µg/mL
same,MIC,[2]; [11],0.03 µg/mL
same,MIC,[2]; [12],0.03 µg/mL
same,MIC,[2]; [14],0.02 to 0.12 µg/mL
same,IC50,[6],> 30 µM
same,IC50 at 48 h,[7],> 64 µg/mL
same,half-life at 1 µM,[8],12.5 min
same,"remaining at 0.5 h, 1 µM",[8],19%
"Cc1ccnc(NC(=O)c2ccsc2NC(=O)c2ccc(C(=O)N3CCCCC3)cc2)n1 [Compound 25j, N-(4-Methylpyrimidin-2-yl)-2-(4-(piperidine-1-carbonyl)benzamido)thiophene-3-carboxamide]",IC50,[1],51.9 µg/mL
same,MIC,[2]; [13],1.94 µg/mL
same,MIC,[2]; [12],1.94 µg/mL
same,melting point,,177 to 178 °C
"Cc1ccnc(NC(=O)c2ccsc2NC(=O)c2ccc(C(=O)N3CCCCC3)c(F)c2)n1 [Compound 25k, 2-(3-Fluoro-4-(piperidine-1-carbonyl)benzamido)-N-(4-methylpyrimidin-2-yl)thiophene-3-carboxamide]",SI,[1],>136
same,IC50,[1],> 64 µg/mL
same,MIC,[2]; [11],0.47 µg/mL
same,MIC,[2]; [12],0.47 µg/mL
same,melting point,,148 to 150 °C
"O=C(Nc1sccc1C(=O)Nc1nccc(C(F)(F)F)n1)c1ccc(C(=O)N2CCCCC2)cc1 [Compound 25l, 2-(4-(Piperidine-1-carbonyl)benzamido)-N-(4-(trifluoromethyl)pyrimidin-2-yl)thiophene-3-carboxamide]",IC50 DprE1,[3],0.4 ± 0.1 µg/mL
same,IC50,[1],> 64 µg/mL
same,log10 CFU/macrophages,[5],4.54 ± 0.00 log10 CFU and 4.59 ± 0.03 log10 CFU
same,Δlog10 CFU,[5],0.98 log10 CFU and 0.93 log10 CFU
same,MIC,[2]; [11],0.2 µg/mL
same,MIC,[2]; [12],0.2 µg/mL
same,MIC,[2]; [14],0.2 µg/mL
same,MIC,"[2]; against M. tuberculosis H37Rv, Tables 1-3",0.20 µg/mL
same,melting point,,182 to 183 °C
"NNC(=O)c1ccncc1 [INH, isoniazid, reference compound]",MIC,[2]; [14],0.019 µg/mL
same,log10 CFU/lung,"[10]; first column (batch with 25a; untreated 6.44), 25a 100 mg/kg",1.76 ± 0.49 log10 CFU
same,Δlog10 CFU,[10]; in vivo,4.68/5.17 log10 CFU
same,log10 CFU/lung,"[10]; second column (another batch, with TCA1; untreated 7.10), TCA1 100 mg/kg",1.93 ± 0.21 log10 CFU
